The record followed here is patent US20250353891A1 (MEDIMMUNE LIMITED, priority 2022, published 2025).

Starred links: 1 amine or outer side, 2 acyl side, 3 side chain; linkers in the order of their positions; H or OH if unused. Non-standard residues stand in square brackets, D forms with d. Residues, ends and D or L forms follow the SMILES beside them. Groups on a side chain read outwards from the residue. *: point of attachment. C20 diacid = O=C(O)CCCCCCCCCCCCCCCCCCC(=O)*; C18 diacid = O=C(O)CCCCCCCCCCCCCCCCC(=O)*; γGlu = O=C(O)[C@H](CCC(=O)[*:2])N[*:1]; αMeF = C[C@](N)(Cc1ccccc1)C(=O)O; AEEA = NCCOCCOCC(=O)O; Aib = CC(C)(N)C(=O)O

In experiment [1] the target is human GLP-1 receptor (hGLP-1R) (Homo sapiens, UniProt P43220). Kind of experiment: cAMP production (HTRF) in CHO cells expressing hGLP-1R. It counts as cell-based. On the set-up: expressed in transfected cells. To be noted: for EC50: Table 6, peptides modified at position 17, cAMP in CHO hGLP-1R cells, geometric mean, read-out: hGLP-1R EC50; for % Relative Potency Ratio: Table 6, % GLP-1R activity relative to GLP-1 / % GlucR activity relative to glucagon. The essentials: (§1)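 Cells were resuspended in assay buffer at batch-optimized density, typically 1×10^5 cells/mL for hGLP-1R and 2×10^5 cells/mL for hGCGR. After 30 min incubation at room temperature with compound, cAMP was measured by two-step HTRF. EC50 values came from 4-parameter logistic fits of % Delta F.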
Chain of human GLP-1 receptor (hGLP-1R) (P43220 24-463): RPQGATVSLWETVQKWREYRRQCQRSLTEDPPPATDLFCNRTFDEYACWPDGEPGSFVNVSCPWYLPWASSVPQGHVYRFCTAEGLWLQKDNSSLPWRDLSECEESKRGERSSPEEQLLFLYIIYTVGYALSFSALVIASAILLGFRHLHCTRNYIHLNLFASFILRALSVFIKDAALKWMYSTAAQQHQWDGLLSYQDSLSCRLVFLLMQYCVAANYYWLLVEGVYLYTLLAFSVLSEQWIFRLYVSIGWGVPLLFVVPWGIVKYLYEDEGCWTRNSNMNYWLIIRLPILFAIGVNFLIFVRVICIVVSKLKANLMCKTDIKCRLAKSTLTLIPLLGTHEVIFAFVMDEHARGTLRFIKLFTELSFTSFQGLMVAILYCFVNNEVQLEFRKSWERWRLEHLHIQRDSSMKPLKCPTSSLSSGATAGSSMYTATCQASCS
On the technique in general: Changes in cAMP serve as a functional read-out for many G protein-coupled receptors.

In experiment [2] the target is human glucagon receptor (hGCGR) (Homo sapiens, UniProt P47871). Briefly: cAMP production (HTRF) in CHO cells expressing hGCGR. It counts as cell-based. On the set-up: expressed in transfected cells. To be noted: Table 6, peptides modified at position 17; cAMP in CHO hGCGR cells; geometric mean; read-out: hGluc-R EC50. A digest of the protocol:
as §1

Chain of human glucagon receptor (hGCGR) (P47871 26-477): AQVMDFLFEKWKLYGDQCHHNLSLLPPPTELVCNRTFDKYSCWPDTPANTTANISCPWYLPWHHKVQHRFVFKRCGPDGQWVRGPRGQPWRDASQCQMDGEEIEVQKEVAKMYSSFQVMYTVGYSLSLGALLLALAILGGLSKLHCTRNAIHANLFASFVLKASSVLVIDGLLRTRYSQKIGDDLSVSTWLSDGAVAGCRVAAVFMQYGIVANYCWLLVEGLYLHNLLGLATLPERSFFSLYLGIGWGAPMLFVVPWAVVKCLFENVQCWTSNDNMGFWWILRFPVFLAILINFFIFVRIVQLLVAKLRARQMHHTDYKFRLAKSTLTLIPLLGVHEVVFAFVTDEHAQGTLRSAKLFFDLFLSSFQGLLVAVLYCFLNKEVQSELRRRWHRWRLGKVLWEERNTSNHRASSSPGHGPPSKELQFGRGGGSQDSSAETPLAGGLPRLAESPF

Broadly, the EC50 is the concentration needed to bring the measured effect to its halfway point. On to `CC(C)C[C@H](NC(=O)[C@H](CC(C)C)NC(=O)C(C)(C)NC(=O)[C@H](CCC(N)=O)NC(=O)[C@@H](NC(=O)[C@H](Cc1ccccc1)NC(=O)[C@H](CC(=O)O)NC(=O)[C@H](CCCNC(=N)N)NC(=O)[C@H](C)NC(=O)[C@H](CCCNC(=N)N)NC(=O)[C@H](CCCCNC(=O)COCCOCCNC(=O)COCCOCCNC(=O)CC[C@H](NC(=O)CCCCCCCCCCCCCCCCC(=O)O)C(=O)O)NC(=O)[C@@H](NC(=O)[C@H](CC(=O)O)NC(=O)[C@H](CC(C)C)NC(=O)[C@](C)(Cc1ccccc1)NC(=O)[C@H](CCCCN)NC(=O)[C@H](CO)NC(=O)[C@@H](NC(=O)[C@H](CC(=O)O)NC(=O)[C@H](CO)NC(=O)[C@@H](NC(=O)[C@H](Cc1ccccc1)NC(=O)[C@@H](NC(=O)CNC(=O)[C@H](CCC(N)=O)NC(=O)C(C)(C)NC(=O)[C@@H](N)Cc1c[nH]cn1)[C@@H](C)O)[C@@H](C)O)C(C)C)[C@@H](C)O)C(C)C)C(=O)N[C@@H](CCC(=O)O)C(=O)NC(C)(C)C(=O)NCC(=O)O` [Peptide 435] (H-H[Aib]QGTFTSDVSK[αMeF]LDTK([AEEA-AEEA-γGlu-C18 diacid])RARDFVQ[Aib]LLE[Aib]G-OH; N-terminus assumed), for which, in experiment [1], the EC50 was 22.7 pM and the “% Relative Potency Ratio” value is reported as 21.0. Besides, in experiment [2], the EC50 is 240 pM.

`CC(C)C[C@H](NC(=O)[C@H](Cc1c[nH]c2ccccc12)NC(=O)[C@H](CCCNC(=N)N)NC(=O)[C@@H](NC(=O)[C@H](Cc1ccccc1)NC(=O)[C@H](CC(=O)O)NC(=O)[C@H](CCC(N)=O)NC(=O)[C@H](C)NC(=O)[C@H](CCCNC(=N)N)NC(=O)[C@H](CCCCNC(=O)COCCOCCNC(=O)COCCOCCNC(=O)CC[C@H](NC(=O)CCCCCCCCCCCCCCCCC(=O)O)C(=O)O)NC(=O)[C@H](CCCNC(=N)N)NC(=O)[C@H](CC(=O)O)NC(=O)[C@H](CC(C)C)NC(=O)[C@](C)(Cc1ccccc1)NC(=O)[C@H](CCCCN)NC(=O)[C@H](CO)NC(=O)[C@@H](NC(=O)[C@H](CC(=O)O)NC(=O)[C@H](CO)NC(=O)[C@@H](NC(=O)[C@H](Cc1ccccc1)NC(=O)[C@@H](NC(=O)CNC(=O)[C@H](CCC(N)=O)NC(=O)C(C)(C)NC(=O)[C@@H](N)Cc1c[nH]cn1)[C@@H](C)O)[C@@H](C)O)C(C)C)C(C)C)C(=O)N[C@H](C(=O)NC(C)(C)C(=O)N[C@@H](CCC(=O)O)C(N)=O)C(C)C` [Peptide 436] (H-H[Aib]QGTFTSDVSK[αMeF]LDRK([AEEA-AEEA-γGlu-C18 diacid])RAQDFVRWLV[Aib]E-NH2; N-terminus assumed): in experiment [1], the 50% effective concentration (EC50) came out at 7.43 pM and the “% Relative Potency Ratio” value is reported as 18.3. The EC50 in experiment [2] worked out at 68.8 pM.

In the case of `CC(C)C[C@H](NC(=O)[C@H](Cc1c[nH]c2ccccc12)NC(=O)[C@H](CCCNC(=N)N)NC(=O)[C@@H](NC(=O)[C@H](Cc1ccccc1)NC(=O)[C@H](CC(=O)O)NC(=O)[C@H](CCC(N)=O)NC(=O)[C@H](C)NC(=O)[C@H](CCCNC(=N)N)NC(=O)[C@H](CCCCNC(=O)COCCOCCNC(=O)COCCOCCNC(=O)CC[C@H](NC(=O)CCCCCCCCCCCCCCCCCCC(=O)O)C(=O)O)NC(=O)[C@H](CCCNC(=N)N)NC(=O)[C@H](CC(=O)O)NC(=O)[C@H](CC(C)C)NC(=O)[C@](C)(Cc1ccccc1)NC(=O)[C@H](CCCCN)NC(=O)[C@H](CO)NC(=O)[C@@H](NC(=O)[C@H](CC(=O)O)NC(=O)[C@H](CO)NC(=O)[C@@H](NC(=O)[C@H](Cc1ccccc1)NC(=O)[C@@H](NC(=O)CNC(=O)[C@H](CCC(N)=O)NC(=O)C(C)(C)NC(=O)[C@@H](N)Cc1c[nH]cn1)[C@@H](C)O)[C@@H](C)O)C(C)C)C(C)C)C(=O)N[C@H](C(=O)NC(C)(C)C(=O)N[C@@H](CCC(=O)O)C(N)=O)C(C)C` [Peptide 437] (H-H[Aib]QGTFTSDVSK[αMeF]LDRK([AEEA-AEEA-γGlu-C20 diacid])RAQDFVRWLV[Aib]E-NH2), in experiment [1], the half-maximal effective concentration (EC50) came to 26.9 pM and the “% Relative Potency Ratio” value is listed as 7.1. Besides, the EC50 in experiment [2] came out at 96.9 pM.

For the compound `CC(C)C[C@H](NC(=O)[C@H](Cc1c[nH]c2ccccc12)NC(=O)[C@H](CCCNC(=N)N)NC(=O)[C@@H](NC(=O)[C@H](Cc1ccccc1)NC(=O)[C@H](CC(=O)O)NC(=O)[C@H](CCC(N)=O)NC(=O)[C@H](C)NC(=O)[C@H](CCCNC(=N)N)NC(=O)[C@H](CCCCNC(=O)COCCOCCNC(=O)COCCOCCNC(=O)CC[C@H](NC(=O)CCCCCCCCCCCCCCCCC(=O)O)C(=O)O)NC(=O)[C@H](CCCCN)NC(=O)[C@H](CC(=O)O)NC(=O)[C@H](CC(C)C)NC(=O)[C@](C)(Cc1ccccc1)NC(=O)[C@H](CCCCN)NC(=O)[C@H](CO)NC(=O)[C@@H](NC(=O)[C@H](CC(=O)O)NC(=O)[C@H](CO)NC(=O)[C@@H](NC(=O)[C@H](Cc1ccccc1)NC(=O)[C@@H](NC(=O)CNC(=O)[C@H](CCC(N)=O)NC(=O)C(C)(C)NC(=O)[C@@H](N)Cc1c[nH]cn1)[C@@H](C)O)[C@@H](C)O)C(C)C)C(C)C)C(=O)N[C@@H](CCC(=O)O)C(=O)N[C@@H](C)C(=O)NC(C)(C)C(=O)NCC(N)=O` [Peptide 438] (H-H[Aib]QGTFTSDVSK[αMeF]LDKK([AEEA-AEEA-γGlu-C18 diacid])RAQDFVRWLEA[Aib]G-NH2; N-terminus assumed), in experiment [1], the concentration for a half-maximal effect (EC50) was determined as 17.9 pM and the “% Relative Potency Ratio” value stood at 7.6. The EC50 in experiment [2] worked out at 68.9 pM.

Turning to `CC(C)C[C@H](NC(=O)[C@H](Cc1c[nH]c2ccccc12)NC(=O)[C@H](CCCNC(=N)N)NC(=O)[C@@H](NC(=O)[C@H](Cc1ccccc1)NC(=O)[C@H](CC(=O)O)NC(=O)[C@H](CCC(N)=O)NC(=O)[C@H](C)NC(=O)[C@H](CCCNC(=N)N)NC(=O)[C@H](CCCCNC(=O)COCCOCCNC(=O)COCCOCCNC(=O)CC[C@H](NC(=O)CCCCCCCCCCCCCCCCC(=O)O)C(=O)O)NC(=O)[C@H](CCCNC(=N)N)NC(=O)[C@H](CC(=O)O)NC(=O)[C@H](CC(C)C)NC(=O)[C@](C)(Cc1ccccc1)NC(=O)[C@H](CCCCN)NC(=O)[C@H](CO)NC(=O)[C@@H](NC(=O)[C@H](CC(=O)O)NC(=O)[C@H](CO)NC(=O)[C@@H](NC(=O)[C@H](Cc1ccccc1)NC(=O)[C@@H](NC(=O)CNC(=O)[C@H](CCC(N)=O)NC(=O)C(C)(C)NC(=O)[C@@H](N)Cc1c[nH]cn1)[C@@H](C)O)[C@@H](C)O)C(C)C)C(C)C)C(=O)N[C@@H](CC(C)C)C(=O)NC(C)(C)C(=O)N[C@@H](CCC(=O)O)C(N)=O` [Peptide 439] (H-H[Aib]QGTFTSDVSK[αMeF]LDRK([AEEA-AEEA-γGlu-C18 diacid])RAQDFVRWLL[Aib]E-NH2; N-terminus assumed), in experiment [1], the EC50 was found to be 30.6 pM and the “% Relative Potency Ratio” value was 3.7. In addition, in experiment [2], the concentration for a half-maximal effect (EC50) turned out to be 57.7 pM.

On to `CC(C)C[C@H](NC(=O)[C@H](Cc1c[nH]c2ccccc12)NC(=O)[C@H](CCCNC(=N)N)NC(=O)[C@@H](NC(=O)[C@H](Cc1ccccc1)NC(=O)[C@H](CC(=O)O)NC(=O)[C@H](CCCNC(=N)N)NC(=O)[C@H](C)NC(=O)[C@H](CCCNC(=N)N)NC(=O)[C@H](CCCCNC(=O)COCCOCCNC(=O)COCCOCCNC(=O)CC[C@H](NC(=O)CCCCCCCCCCCCCCCCCCC(=O)O)C(=O)O)NC(=O)[C@H](CCCCN)NC(=O)[C@H](CC(=O)O)NC(=O)[C@H](CC(C)C)NC(=O)[C@](C)(Cc1ccccc1)NC(=O)[C@H](CCCCN)NC(=O)[C@H](CO)NC(=O)[C@@H](NC(=O)[C@H](CC(=O)O)NC(=O)[C@H](CO)NC(=O)[C@@H](NC(=O)[C@H](Cc1ccccc1)NC(=O)[C@@H](NC(=O)CNC(=O)[C@H](CCC(N)=O)NC(=O)C(C)(C)NC(=O)[C@@H](N)Cc1c[nH]cn1)[C@@H](C)O)[C@@H](C)O)C(C)C)C(C)C)C(=O)N[C@@H](CC(C)C)C(=O)NC(C)(C)C(=O)N[C@@H](CCC(=O)O)C(=O)O` [Peptide 440] (H-H[Aib]QGTFTSDVSK[αMeF]LDKK([AEEA-AEEA-γGlu-C20 diacid])RARDFVRWLL[Aib]E-OH; N-terminus assumed), for which, in experiment [1], the EC50 was determined as 154 pM and the “% Relative Potency Ratio” value amounted to 1.0. The EC50 in experiment [2] was 81 pM.

In the case of `CC(C)C[C@H](NC(=O)[C@H](Cc1c[nH]c2ccccc12)NC(=O)[C@H](CCCNC(=N)N)NC(=O)[C@@H](NC(=O)[C@H](Cc1ccccc1)NC(=O)[C@H](CC(=O)O)NC(=O)[C@H](CCC(N)=O)NC(=O)[C@H](C)NC(=O)[C@H](CCCNC(=N)N)NC(=O)[C@H](CCCCNC(=O)COCCOCCNC(=O)COCCOCCNC(=O)CC[C@H](NC(=O)CCCCCCCCCCCCCCCCCCC(=O)O)C(=O)O)NC(=O)[C@H](CCCCN)NC(=O)[C@H](CC(=O)O)NC(=O)[C@H](CC(C)C)NC(=O)[C@](C)(Cc1ccccc1)NC(=O)[C@H](CCCCN)NC(=O)[C@H](CO)NC(=O)[C@@H](NC(=O)[C@H](CC(=O)O)NC(=O)[C@H](CO)NC(=O)[C@@H](NC(=O)[C@H](Cc1ccccc1)NC(=O)[C@@H](NC(=O)CNC(=O)[C@H](CCC(N)=O)NC(=O)C(C)(C)NC(=O)[C@@H](N)Cc1c[nH]cn1)[C@@H](C)O)[C@@H](C)O)C(C)C)C(C)C)C(=O)N[C@@H](CC(C)C)C(=O)NC(C)(C)C(=O)N[C@@H](CCC(=O)O)C(N)=O` [Peptide 441] (H-H[Aib]QGTFTSDVSK[αMeF]LDKK([AEEA-AEEA-γGlu-C20 diacid])RAQDFVRWLL[Aib]E-NH2; N-terminus assumed), in experiment [1], the EC50 stood at 62.7 pM and the “% Relative Potency Ratio” value worked out at 2.3. Besides, in experiment [2], the concentration giving a half-maximal response (EC50) worked out at 72.8 pM.
